According to patent US20230003721A1, “MITOTHERAPEUTICS FOR THE TREATMENT OF BRAIN DISORDERS” (The University of Florida Research Foundation, Inc., priority 2019, published 2023):
Structures can show the parent of a compound that is named as a salt.

Legend:
primary neurons [1] = assay: CellTiter-Glo luminescence-based ATP assay; type: cell-based, mouse; details: for ATP: ATP orthogonal screen, 24 h; for EC50 / Emax: Mus musculus, Primary neuron, dose response; for EC50: 15 concentrations from 6 nM to 100 uM; for Emax: maximal percent increase relative to in-plate DMSO controls, read-out: ATP (Effect-size)
Procedure: Measurement of ATP production. The total amount of ATP produced by cultured primary neurons was measured by CellTiter-Glo Luminescent Cell Viability Assay (Promega). A recombinant luciferase enzyme catalyzed the mono-oxygenation of luciferin while hydrolyzing ATP produced by the cells and emitting light. We followed the manufacturer's protocol with primary neurons on DIV14.
(§1) A CLARIOstar (BMG LABTECH) microplate reader was used to measure fluorescence of TMRM and luminescence produced from the ATP.
(§2) Mitochondrial membrane potential (Δψm) and luminescence-based ATP assays. […] Changes of ΔΨm in each well were monitored using the mitochondrial-specific, fluorescent dye TMRM (tetramethyl rhodamine, methyl ester; Molecular Probes) and measured using a CLARIOstar plate reader. […] This concentration was used throughout our experiments. […] Wells in columns 1 and 24 were not loaded with TMRM; these served to measure background signal which was subtracted from the wells to which TMRM was added. To measure the total ATP levels in neurons we utilized the CellTiter-Glo® luminescence-based ATP assay (Promega). DIV13 primary neurons were cultured for 24 h with either DMSO carrier or compound treatment, followed by removing 55 μl culture medium from each well. Plates were maintained at room temperature for 25 m, and 25 μl of CellTiter-Glo® Reagent with the substrate luciferin was then added to each well (Promega). Plates were covered with aluminum foil and shaken vigorously on an orbital shaker for 10 m at 200 rpm and maintained at room temperature for an additional 2 m in dark before being read with the plate reader set to the luminescence mode.
Compound library and hit picking rules. We screened 2400 compounds from the MicroSource Spectrum library. […] FIGS. 13A-13E provide details of the assays used from which hit picking rules were made. In essence, the average fluorescence for each compound in the TMRM assay was determined and compared to the average fluorescence for compounds in the population on each assay plate to produce a Z-score. The Z-scores for each individual compound assayed across the four replicate plates was then averaged. Because of significant well location effects (outer rows) on each assay plate (FIG. 13G), we selected primary hits as enhancing well fluorescence above the μplate by 3σplate for inner row wells (rows C-N, columns 3-22), and by 2.5σplate for outer row wells (rows A, B, O, P; columns 3-22) (FIG. 14C-D). […] All orthogonal assays employed inner wells of the 384-well plates.

primary neurons [2] = assay: TMRM fluorescence assay of inner mitochondrial membrane potential (ΔΨm); details: for TMRM Primary: primary screen; for TMRM Primary / hit in TMRM primary screen when assayed at 4 h: 12.5 μM; for TMRM Primary / TMRM Rescreen: 24 h; for Emax / EC50: Mus musculus, Primary neuron; for Emax: read-out: TMRM (Effect-size); for EC50: read-out: TMRM-EC50
Procedure: Mitochondrial dyes. To assay the electrochemical potential across the inner mitochondrial membrane of cultured cells, we used the cell-permeant dye tetramethylrhodamine methyl ester (TMRM). For co-localization studies with Mt-GFP, TMRM was used at 20 nM on DIV14 and incubated for 30 min prior to imaging. For the orthogonal screen of compounds, TMRM was added to primary neurons on DIV13 at 10 nM, one hr prior to pintooling selected compounds, and incubated for 24 hr. Cells were washed 2× with pre-warmed fresh feeding media without B27 before measurements with a plate reader.
as §1, §2
Compound library and hit picking rules. We screened 2400 compounds from the MicroSource Spectrum library. […] FIGS. 13A-13E provide details of the assays used from which hit picking rules were made. In essence, the average fluorescence for each compound in the TMRM assay was determined and compared to the average fluorescence for compounds in the population on each assay plate to produce a Z-score. The Z-scores for each individual compound assayed across the four replicate plates was then averaged.

| SMILES | ATP (primary neurons [1]) | TMRM Primary (primary neurons [2]) | TMRM Rescreen (primary neurons [2]) | hit in TMRM primary screen when assayed at 4 h (primary neurons [2]) | EC50 (primary neurons [1]) | Emax (primary neurons [1]) | Emax (primary neurons [2]) | EC50 (primary neurons [2]) |
| --- | --- | --- | --- | --- | --- | --- | --- | --- |
| CN(C)CCC=C1c2ccccc2C=Cc2ccccc21 [cyclobenzaprine hydrochloride] | 3.49 Z-scores | 5.52 Z-scores | 4.71 Z-scores |  |  |  |  |  |
| CC1=C2C[C@H]3[C@@H](CC=C4C[C@@H](O)CC[C@@]43C)[C@@H]2CC[C@]12O[C@@H]1C[C@H](C)CN[C@H]1[C@H]2C [cyclopamine] | 5.15 Z-scores | 3.74 Z-scores | 8.14 Z-scores |  |  |  |  |  |
| CC(C)c1ccc2c(c1)CC[C@H]1[C@](C)(C(N)=O)CCC[C@]21C [dehydroabietamide] | 4.15 Z-scores | 3.42 Z-scores | 5.12 Z-scores |  |  |  |  |  |
| CC(=O)OCC(=O)[C@H]1CC[C@H]2[C@@H]3CCC4=CC(=O)CC[C@]4(C)[C@H]3CC[C@]12C [desoxycorticosterone acetate] | 3.62 Z-scores | 2.81 Z-scores | 1.08 Z-scores | desoxycorticosterone acetate* |  |  |  |  |
| CC(C)NC[C@@H](O)COc1cccc2ccccc12.Cl [dexpropranolol hydrochloride [R(+)]] | 6.22 Z-scores | 4.37 Z-scores | 4.79 Z-scores |  |  |  |  |  |
| CCCCOc1cc(C(=O)NCCN(CC)CC)c2ccccc2n1 [dibucaine hydrochloride] | 6.22 Z-scores | 3.83 Z-scores | 6.82 Z-scores |  |  |  |  |  |
| CN(C)CCOC(c1ccccc1)c1ccccc1.Cn1c(=O)c2[nH]c(Cl)nc2n(C)c1=O [dimenhydrinate] | 4.94 Z-scores | 3.98 Z-scores | 4.31 Z-scores |  |  |  |  |  |
| O=C(Nc1ccccc1)OCC(CN1CCCCC1)OC(=O)Nc1ccccc1 (stereo not shown) [diperodon hydrochloride] | 8.02 Z-scores | 3.75 Z-scores | 6.07 Z-scores |  |  |  |  |  |
| COc1cc2nc(N3CCN(C(=O)C4COc5ccccc5O4)CC3)nc(N)c2cc1OC (stereo not shown) [doxazosin mesylate] | 4.68 Z-scores | 4.39 Z-scores | 5.94 Z-scores |  |  |  |  |  |
| COc1cccc2c1C(=O)c1c(O)c3c(c(O)c1C2=O)C[C@@](O)(C(=O)CO)C[C@@H]3O[C@H]1C[C@H](N)[C@H](O)[C@H](C)O1 [doxorubicin] | 4.00 Z-scores | 4.02 Z-scores | 5.05 Z-scores |  |  |  |  |  |
| CCN(CC)CCOC(=O)C(c1ccccc1)C1CCCCC1 (stereo not shown) [drofenine hydrochloride] | 4.84 Z-scores | 3.68 Z-scores | 5.96 Z-scores |  |  |  |  |  |
| C[C@]12CC[C@@H]3c4ccc(O)cc4CC[C@H]3[C@@H]1CC[C@@H]2OC(=O)CCC1CCCC1 [estradiol cypionate] | 2.98 Z-scores | 2.59 Z-scores | 4.67 Z-scores |  |  |  |  |  |
| COc1ccc2c(c1)CC[C@@H]1[C@@H]2CC[C@]2(C)[C@@H](O)CC[C@@H]12 [estradiol methyl ether] | 4.80 Z-scores | 3.74 Z-scores | 3.55 Z-scores |  |  |  |  |  |
| CC12CCC3c4ccc(OCc5ccccc5)cc4CCC3C1C[C@@H](O)[C@@H]2O (stereo partly shown) [estriol benzyl ether] | 2.03 Z-scores | 3.17 Z-scores | 6.67 Z-scores |  |  |  |  |  |
| CC(=O)Oc1ccc2c(c1)CCC1C2CC[C@]2(C)C(=O)CCC12 (stereo partly shown) [estrone acetate] | 3.36 Z-scores | 3.26 Z-scores | 5.89 Z-scores |  |  |  |  |  |
| C=CCc1ccc(O)c(OC)c1 [eugenol] | 4.39 Z-scores | 4.17 Z-scores | 3.10 Z-scores | eugenol* |  |  |  |  |
| CCOC(=O)C1=C(C)NC(C)=C(C(=O)OC)C1c1cccc(Cl)c1Cl (stereo not shown) [felodipine] | 5.08 Z-scores | 3.80 Z-scores | 2.41 Z-scores |  |  |  |  |  |

| SMILES | ATP (primary neurons [1]) | TMRM Primary (primary neurons [2]) | TMRM Rescreen (primary neurons [2]) | hit in TMRM primary screen when assayed at 4 h (primary neurons [2]) | EC50 (primary neurons [1]) | Emax (primary neurons [1]) | Emax (primary neurons [2]) | EC50 (primary neurons [2]) |
| --- | --- | --- | --- | --- | --- | --- | --- | --- |
| C[C@]12CC[C@@H]3c4ccc(O)cc4C[C@@H](CCCCCCCCC[S+]([O-])CCCC(F)(F)C(F)(F)F)[C@H]3[C@@H]1CC[C@@H]2O (stereo partly shown) [fulvestrant] | 4.27 Z-scores | 3.31 Z-scores | 6.27 Z-scores |  |  |  |  |  |
| COc1cc(O)c2c(=O)cc(C)oc2c1CC=C(C)C [heteropeucenin, methyl ether] | 5.92 Z-scores | 3.45 Z-scores | 4.33 Z-scores |  |  |  |  |  |
| CCN(CC)CCNc1ccc(CO)c2sc3ccccc3c(=O)c12 [hycanthone] | 4.61 Z-scores | 4.40 Z-scores | 5.48 Z-scores |  |  |  |  |  |
| OCCOCCN1CCN(C(c2ccccc2)c2ccc(Cl)cc2)CC1 (stereo not shown) [hydroxyzine pamoate] | 5.22 Z-scores | 3.15 Z-scores | 6.04 Z-scores |  |  |  |  |  |
| O=C([O-])Cc1c[nH]cn1.[Na+] [imidazol-4-ylacetic acid sodium salt] | 4.61 Z-scores | 3.58 Z-scores | 4.56 Z-scores | imidazol-4-ylacetic acid sodium salt* |  |  |  |  |
| CN(C)CCCN1c2ccccc2CCc2ccccc21 [imipramine hydrochloride] | 5.10 Z-scores | 3.31 Z-scores | 0.91 Z-scores |  |  |  |  |  |
| OCc1c[nH]c2ccccc12 [indole-3-carbinol] | 6.52 Z-scores | 3.15 Z-scores | 6.27 Z-scores |  |  |  |  |  |
| O=C(c1ccc(F)cc1)C1CCN(CCn2c(=O)[nH]c3ccccc3c2=O)CC1 [ketanserin tartrate] | 5.68 Z-scores | 5.62 Z-scores | 5.26 Z-scores |  | 160 nM | 19.1% | 30% | 1300 nM |
| CN1CCC(=C2c3ccccc3CC(=O)c3sccc32)CC1 [ketotifen fumarate] | 5.58 Z-scores | 3.91 Z-scores | 3.98 Z-scores | ketotifen fumarate* |  |  |  |  |
| C=C[C@@](C)(O)CC[C@H]1C(=C)C[C@H](OC(C)=O)[C@H]2C(C)(C)CCC[C@]12C [larixol acetate] | 2.67 Z-scores | 3.96 Z-scores | 5.67 Z-scores |  |  |  |  |  |
| CCN(CC)C(=O)[C@@]1(c2ccccc2)C[C@H]1CN [levomilnacipran hydrochloride] | 3.87 Z-scores | 3.26 Z-scores | 3.53 Z-scores |  |  |  |  |  |
| CCN(CC)CC(=O)Nc1c(C)cccc1C [lidocaine hydrochloride] | 6.98 Z-scores | 3.06 Z-scores | 4.69 Z-scores |  | 110 nM | 15.8% | 17.4% | 1890 nM |
| CN1[C@@H](CC(=O)c2ccccc2)CCC[C@H]1C[C@H](O)c1ccccc1 [lobeline hydrochloride] | 3.67 Z-scores | 6.62 Z-scores | 6.75 Z-scores |  |  |  |  |  |
| CC(=O)O[C@]1(C(C)=O)CC[C@H]2[C@@H]3C[C@H](C)C4=CC(=O)CC[C@]4(C)[C@H]3CC[C@@]21C [medroxyprogesterone acetate] | 2.64 Z-scores | 3.66 Z-scores | 3.67 Z-scores | medroxyprogesterone acetate* |  |  |  |  |
| OC(c1cc(C(F)(F)F)nc2c(C(F)(F)F)cccc12)C1CCCCN1 (stereo not shown) [mefloquine] | 5.09 Z-scores | 3.75 Z-scores | 5.54 Z-scores |  |  |  |  |  |
| CCCNC(C)(C)COC(=O)c1ccccc1 [meprylcaine hydrochloride] | 6.05 Z-scores | 3.56 Z-scores | 5.91 Z-scores |  |  |  |  |  |
